In patent publication US11872260B2, “Mint essential oils inhibit HRASQ61L mutant keratinocyte activity and prevent skin carcinogenesis” (ACADEMIA SINICA, priority 2018, dated 2024):

How the values were obtained:
[1] = system: DMBA/TPA/PLX4032-induced skin papilloma; test: Two-stage skin carcinogenesis, DMBA/TPA accelerated by PLX4032; type: in vivo, FVB/NJNarl mice
Description: Female FVB/NJNarl mice (5-6 weeks old) were randomized into 9 groups, each group contained 8 mice. Mice had their back hair shaved three days before topical application of 25 μg 7,12-dimethylbenz[a]anthracene (DMBA) in 200 μL acetone. The first week after tumor initiation, 4 μg of 12-O-tetradecanoylphorbol-13-acatate (TPA) in 200 μL acetone was topically applied twice a week to the shaved back skin for 12 weeks. Mice were treated with the indicated concentrations of mint EOs or compounds (in 200 μL acetone) twice a week by topical application the day after TPA treatment for 12 weeks. Tumor size of more than 1 mm diameter was counted every week. After mice were sacrificed, internal organs (heart, liver, spleen, lung, and kidneys), serum, skin and papillomas were collected and fixed with 10% formalin or stored at −80° C.

patients = patients treated with PLX4032; cited from earlier work
cdc2 in PDV cells = test: Western blot p-cdc2/cdc2; type: cell-based, mouse; conditions: 24 h; KWM-EO 75 μg/mL, LM-EO 75 μg/mL, L+C 60 μg/mL, PLX4032 0.5 μM, each alone
Description: (§1) Cells were treated with EOs or compounds at the indicated concentrations and lysed in RIPA lysis buffer. Protein concentrations were measured by DC protein assay (Bio-Rad, United States). Western blotting was performed as described by Shyur et al. Protein samples were separated by 10 or 12% SDS-PAGE, and electro-transferred onto PVDF membranes (Merck Millipore, United States). The membranes were blocked with 5% skimmed milk in TBST for 1 h at room temperature. After washing the membranes three times with TBST, membranes were incubated with appropriate primary antibodies overnight (12-16 h) at 4° C. The membranes were washed with TBST three times, followed by incubation with horseradish peroxidase (HRP)-conjugated anti-mouse IgG or anti-rabbit IgG secondary antibodies for 2 h at room temperature. Reactive protein bands were visualized using enhanced chemiluminescent detection reagents (GE Healthcare, United States) and exposed to chemiluminescence light film (GE Healthcare, United States). The expression levels of targeted proteins were quantified by ImageJ software (National Institutes of Health, United States).

[2] = system: epidermis of mouse dorsal skin; test: Histopathology (H&E) of mouse skin from two-stage skin carcinogenesis; type: in vivo, FVB mice; conditions: intraperitoneal PLX4032 in DMBA/TPA skin
tyrosinase in B16 cells = test: Western blot of tyrosinase in B16 cells; type: cell-based, Murine; conditions: 6, 12, 24 h
Description: as §1

B16 melanoma cells = test: Depigmentation assay (melanin absorbance 405 nm); type: cell-based, Murine; conditions: 24 h; 15 and 25 μg/mL LM-EO, 100 μg/mL KA
Description: B16 cells (1×10^6 cells/15-cm dish) were treated with vehicle (0.5% DMSO), 15 and 25 μg/mL LM-EO (LM15 and LM25), or 100 μg/mL kojic acid (KA100) for 6, 12, 24 h. After washing with PBS for two times, the cells were harvested by cell scrapper and centrifugation. The cell pellets were then taken a photo before dissolved in 1 N NaOH at 60° C. for 1 h. The volume of NaOH used to dissolve the cell pellets were adjusted based on the cell populations to yield the equal concentration. The absorbance was then measured at 405 nm.

Row | SMILES | swelling of the spleen, effect of PLX4032 ([1]; PLX4032 in DMBA/TPA mice) | tumor multiplicity, effect of PLX4032 on DMBA/TPA mice ([1]; intraperitoneal PLX4032) | patients developing squamous cell carcinoma (SCC) and keratoacanthoma (KA) (patients) | ratio of phospho-cdc2 to cdc2, increase vs vehicle (cdc2 in PDV cells) [fold] | proliferation and hyperplasia of the epidermis, effect of PLX4032 [2] | tyrosinase expression (tyrosinase in B16 cells) | depigmentation effect (melanin) (B16 melanoma cells)
1 | CCCS(=O)(=O)Nc1ccc(F)c(C(=O)c2c[nH]c3ncc(-c4ccc(Cl)cc4)cc23)c1F [PLX4032, vemurafenib] | exacerbated the swelling of the spleen | greatly increased the tumor multiplicity | 20-30% | 2.1 | exacerbated the proliferation and hyperplasia of the epidermis |  | 
2 | O=c1cc(CO)occ1O [KA, Kojic acid] |  |  |  |  |  | time-dependently inhibited tyrosinase expression | depigmentation effect with statistical significance
